Measured values reported in the NIST ThermoML archive (doi:10.1016/j.jct.2006.09.008).

Assay: molar heat capacity at constant pressure; mn = molality of the nth substance listed, in mol/kg
Settings: 350 kPa, Liquid

O=[N+]([O-])[O-].O=[N+]([O-])[O-].[Mn+2] [manganese nitrate] + O
molar heat capacity at constant pressure [J/K/mol]
Settings	m1 = 0.0132	m1 = 0.0248	m1 = 0.0503	m1 = 0.0825	m1 = 0.0836	m1 = 0.1542	m1 = 0.3085	m1 = 0.5132
278.15 K	75.63	75.56	75.42	75.25	75.25	74.9	74.27	73.62
283.15 K	75.47	75.41	75.28	75.14	75.13	74.83	74.27	73.71
288.15 K	75.36	75.31	75.19	75.07	75.06	74.79	74.3	73.8
293.15 K	75.29	75.24	75.14	75.02	75.02	74.78	74.34	73.88
298.15 K	75.24	75.2	75.1	75	75	74.78	74.38	73.96
303.15 K	75.21	75.17	75.08	74.99	74.99	74.78	74.42	74.04
308.15 K	75.2	75.16	75.08	74.99	74.99	74.8	74.46	74.11
313.15 K	75.2	75.16	75.09	75.01	75	74.83	74.51	74.18
318.15 K	75.21	75.18	75.11	75.03	75.03	74.86	74.56	74.25
323.15 K	75.24	75.2	75.14	75.06	75.06	74.89	74.61	74.32
328.15 K	75.27	75.24	75.17	75.1	75.09	74.94	74.66	74.39
333.15 K	75.31	75.28	75.21	75.14	75.14	74.99	74.72	74.45
338.15 K	75.36	75.33	75.26	75.19	75.19	75.04	74.78	74.52
343.15 K	75.42	75.39	75.32	75.25	75.25	75.1	74.84	74.59
348.15 K	75.48	75.45	75.38	75.31	75.31	75.16	74.91	74.66
353.15 K	75.55	75.52	75.46	75.38	75.38	75.23	74.98	74.73
358.15 K	75.63	75.6	75.53	75.46	75.46	75.31	75.06	74.81
363.15 K	75.72	75.68	75.62	75.54	75.54	75.39	75.14	74.89
368.15 K	75.81	75.78	75.71	75.63	75.63	75.48	75.22	74.97
373.15 K	75.91	75.88	75.81	75.73	75.73	75.57	75.31	75.06
378.15 K	76.02	75.99	75.91	75.83	75.83	75.67	75.41	75.15
383.15 K	76.14	76.1	76.03	75.94	75.94	75.78	75.51	75.25
388.15 K	76.27	76.23	76.15	76.07	76.07	75.89	75.62	75.36
393.15 K	76.41	76.37	76.29	76.2	76.2	76.02	75.74	75.47
